# In article PMC3132655, “Synthesis and In Vitro Evaluation of Novel Nortropane Derivatives as Potential Radiotracers for Muscarinic M2 Receptors” (International Journal of Molecular Imaging, 2011):
# “And” between values parts separate entries of the source, which are not always exact repeats. Equal values may be shown once. Read-outs that look alike come from different tables or passages of the source.
# Columns and labels:
# muscarinic M2 receptor = settings: [3H]QNB as reference tracer; ref 27 (Pei et al.); cited from earlier work
# [1] = target: T1, recombinant human muscarinic M2 receptor (Homo sapiens, UniProt P08172); experiment: competitive binding against [3H]NMS, CHO cell membranes, M2; settings: for affinity for M2 (in words): [3H]NMS competition
# T1 construct: purchased Perkin Elmer, Waltham, USA; host or cells: CHO cells (membrane suspensions)
# T1 sequence (P08172 1-466): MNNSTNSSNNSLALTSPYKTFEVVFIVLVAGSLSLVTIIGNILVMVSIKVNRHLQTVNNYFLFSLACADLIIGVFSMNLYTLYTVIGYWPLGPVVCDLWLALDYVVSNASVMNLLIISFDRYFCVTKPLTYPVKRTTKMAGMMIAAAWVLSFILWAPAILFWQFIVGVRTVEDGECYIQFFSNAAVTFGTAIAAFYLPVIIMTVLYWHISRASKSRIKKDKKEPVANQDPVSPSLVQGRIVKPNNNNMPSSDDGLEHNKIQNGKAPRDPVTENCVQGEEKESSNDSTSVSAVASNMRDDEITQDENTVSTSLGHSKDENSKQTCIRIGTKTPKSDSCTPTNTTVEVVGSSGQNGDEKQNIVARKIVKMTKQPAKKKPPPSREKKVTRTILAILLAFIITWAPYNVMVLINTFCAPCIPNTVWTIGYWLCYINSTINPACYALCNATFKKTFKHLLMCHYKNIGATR
# Protocol: (§1) Assays were performed on membrane suspensions from CHO cells expressing either the recombinant human muscarinic M1, M2, or the M3 receptor subtype (Perkin Elmer, Waltham, USA).
# (§2) In the competitive binding assays, incubation buffer contained 50 mM TRIS-HCl, 10 mM MgCl2, and 1 mM EDTA (pH 7.4 at 4°C). The assays were incubated during 60 min (M1 or M2 receptor subtypes) or 120 min (M3 receptor subtypes) at 27°C. Nonspecific binding was determined using atropine as a competitor in a concentration of 1 μM.
# (§3) In the first series of competitive binding assays, the 6β-4′-iodobenzyl ether (5b) and the 6β-4′-iodobenzoate ester (5c) of 6β-nortropinol, as well as the lead compound 6β-acetoxynortropane (5a), were tested. Protein concentrations for undiluted receptor subtype suspensions were 1.2 mg/mL (M1), 4.3 mg/mL (M2), and 2.0 mg/mL (M3). […] Final competitor concentrations ranged from 1.0 · 10^−10 M to 1.0 · 10^−4 M. After incubation, the reaction was rapidly terminated by vacuum filtration over GF/C glass fiber filters, presoaked in 0.3% polyethylenimine (Sigma-Aldrich, Munich, Germany), and washed 5 times with 1 mL of ice-cold buffer. Filters were placed in vials with 10 mL of scintillation fluid (Ultima Gold, Perkin Elmer, Waltham, USA) and counted in a liquid scintillation counter (Tri-Carb 2900 TR Liquid Scintillation Analyzer, Packard. Software version: 3100).
# (§4) In the second series of competitive binding assays, derivative 10a and 10b and the lead compound 6β-acetoxynortropane (5a) were tested. In this series, the protein concentrations for undiluted receptor subtype suspensions were 0.6 mg/mL (M1), 7.5 mg/mL (M2), and 1.5 mg/mL (M3). […] Final competitor concentrations ranged from 1.0 · 10^−10 M to 1.0 · 10^−5 M. After incubation, the assays were filtrated over UniFilter 96 GF/C filter plates, presoaked in 0.3% polyethylenimine (Sigma-Aldrich, Munich, Germany), and washed 9 times with 200 μL of ice-cold buffer. 30 μL of scintillation fluid (MicroScint, Perkin Elmer, Waltham, USA) was added, and the filter plates were counted in a liquid scintillation counter (TopCount 5.0 Liquid Scintillation Analyzer, Perkin Elmer, Waltham, USA).
# [2] = target: T2, recombinant human muscarinic M3 receptor (Homo sapiens, UniProt P20309); experiment: competitive binding against [3H]NMS, CHO cell membranes, M3; settings: for selectivity ratio for M2 over M3: ratio of Ki, [3H]NMS; for affinity for M3 (in words): [3H]NMS competition
# T2 construct: purchased Perkin Elmer, Waltham, USA; host or cells: CHO cells (membrane suspensions)
# Protocol: as §1, §2, §3, §4
# [3] = target: T3, recombinant human muscarinic M1 receptor (Homo sapiens, UniProt P11229); experiment: competitive binding against [3H]NMS, CHO cell membranes, M1; settings: for selectivity ratio for M2 over M1: ratio of Ki, [3H]NMS; for affinity for M1 (in words): [3H]NMS competition
# T3 construct: purchased Perkin Elmer, Waltham, USA; host or cells: CHO cells (membrane suspensions)
# Protocol: as §1, §2, §3, §4
# [4] = first series, n = 3, [3H]NMS 0.2 nM, read-out: Ki for M2
# T2 sequence (P20309 whole entry): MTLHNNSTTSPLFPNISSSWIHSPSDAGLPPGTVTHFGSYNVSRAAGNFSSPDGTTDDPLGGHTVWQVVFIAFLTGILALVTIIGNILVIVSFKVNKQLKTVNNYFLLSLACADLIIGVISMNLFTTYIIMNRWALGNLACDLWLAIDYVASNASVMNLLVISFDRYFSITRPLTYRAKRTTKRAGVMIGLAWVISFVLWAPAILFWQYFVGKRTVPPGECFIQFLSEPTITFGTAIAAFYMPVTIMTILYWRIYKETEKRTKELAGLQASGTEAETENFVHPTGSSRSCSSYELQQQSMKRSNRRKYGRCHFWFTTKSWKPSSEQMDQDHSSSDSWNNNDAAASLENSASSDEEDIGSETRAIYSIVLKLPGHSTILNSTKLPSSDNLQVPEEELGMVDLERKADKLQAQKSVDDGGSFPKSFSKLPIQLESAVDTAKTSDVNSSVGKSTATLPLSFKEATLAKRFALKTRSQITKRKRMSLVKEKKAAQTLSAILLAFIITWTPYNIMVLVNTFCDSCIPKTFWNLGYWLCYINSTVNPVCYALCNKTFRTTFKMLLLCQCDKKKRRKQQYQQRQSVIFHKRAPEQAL
# T3 sequence (P11229 whole entry): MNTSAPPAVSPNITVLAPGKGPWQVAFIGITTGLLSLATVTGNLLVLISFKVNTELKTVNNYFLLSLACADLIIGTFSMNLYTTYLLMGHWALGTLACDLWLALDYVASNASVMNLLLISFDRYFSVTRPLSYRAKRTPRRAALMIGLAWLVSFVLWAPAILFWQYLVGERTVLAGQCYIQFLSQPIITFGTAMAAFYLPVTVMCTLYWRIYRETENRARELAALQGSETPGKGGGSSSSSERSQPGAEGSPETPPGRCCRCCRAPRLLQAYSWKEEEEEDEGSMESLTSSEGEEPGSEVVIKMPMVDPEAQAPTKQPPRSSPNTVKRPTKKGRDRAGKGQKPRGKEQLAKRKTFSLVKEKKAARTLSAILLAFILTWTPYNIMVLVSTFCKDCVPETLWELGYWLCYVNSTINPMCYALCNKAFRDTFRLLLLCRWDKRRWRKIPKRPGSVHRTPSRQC
Structure (SMILES),Ki (muscarinic M2 receptor) [µM],"Ki ([1]; Ki for M2, first series/experiment, n = 3, [3H]NMS 0.2 nM, average ± SD)","Ki ([1]; Ki for M2, second series/experiment, n = 4, [3H]NMS 0.13 nM, average ± SD)","Ki ([1]; Ki to M2 receptors, range over both experiments (abstract)) [µM]",selectivity ratio to the M3 ([2]; abstract) [fold],selectivity ratio for M2 over M3 [2],selectivity ratio to the M1 ([3]; abstract) [fold],selectivity ratio for M2 over M1 [3],affinity for M2 (in words) [1],"Ki [1, 4] [µM]",affinity for M3 (in words) [2],affinity for M1 (in words) [3]
"CC(=O)OC1CC2CCCC1N2 (stereo not drawn) [5a, 6β-acetoxynortropane, reference compound]",0.0026,0.0881 µM and 0.088 µM,0.0716 µM and 0.071 µM,0.07 to 0.09,70,~70,65,approximately 65,–,–,–,–
"Ic1ccc(COC2CC3CCCC2N3)cc1 (stereo not drawn) [5b, 6β-4′-iodobenzyl ether of 6β-nortropinol]",–,–,–,–,–,0.2,–,0.1,weak affinity,3,weak affinity,weak affinity
"O=C(OC1CC2CCCC1N2)c1ccc(I)cc1 (stereo not drawn) [5c, 6β-4′-iodobenzoate ester of 6β-nortropinol]",–,–,–,–,–,2.0,–,0.6,weak affinity,6.8,weak affinity,weak affinity
